Active and inactive are the calls of the source.
What was measured:
[1] = molecular target: Mitogen-activated protein kinase 10 (Homo sapiens, UniProt P53779); experiment: Dose response biochemical screening assay for inhibitors of c-Jun N-Terminal Kinase 3 (JNK3). [Related pubchem assays: 746 ]
Galanin receptor type 2 = Galanin receptor type 2 (Homo sapiens, UniProt O43603); experiment: Dose Response cell-based high-throughput screening assay to identify antagonists of galanin receptor 2 (GALR2). [Related pubchem assays: 828, 866 ]; type: functional
Chain of Galanin receptor type 2 (O43603 whole entry): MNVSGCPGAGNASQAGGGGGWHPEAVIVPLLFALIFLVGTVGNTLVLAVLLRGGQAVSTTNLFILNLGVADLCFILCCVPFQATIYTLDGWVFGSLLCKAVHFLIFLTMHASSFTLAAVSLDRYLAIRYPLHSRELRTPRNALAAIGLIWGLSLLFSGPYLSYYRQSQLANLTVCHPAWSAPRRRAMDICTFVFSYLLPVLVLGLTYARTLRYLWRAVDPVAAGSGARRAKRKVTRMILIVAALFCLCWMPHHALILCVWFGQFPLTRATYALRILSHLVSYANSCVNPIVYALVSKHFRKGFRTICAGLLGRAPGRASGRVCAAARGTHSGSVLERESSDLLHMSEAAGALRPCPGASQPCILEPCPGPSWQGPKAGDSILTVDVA

[2] = growth inhibition of yeast DHODH-expressing 3D7 parasites – SYBR Green, dry powder samples, dose response (AID 1159570); type: functional, cell-based;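 note: parasite growth measured after 72 hours of compound exposure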
[3] = toxicity to human HepG2 hepatoma cells – cell-based, plate reader, dry powder samples, cytotoxicity control, dose response (AID 1159569); type: functional;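 note: inhibitor potency with signal falling toward the positive control level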
[4] = growth inhibition of PfATP4-mutant resistant parasites – NITD609-resistant line, SYBR Green, dry powder, dose response (AID 1159571); type: functional, cell-based;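 note: parasites synchronized at ring stage by sorbitol before testing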
[5] = P. falciparum Dd2 growth inhibitors, dose response, SYBR Green, cherry-picked samples (AID 1159567); type: functional, cell-based
[6] = toxicity to human hepatoma HepG2 cells – cell-based, cherry-picked samples, cytotoxicity control, dose response (AID 1159577); type: functional
[7] = Dd2 malaria parasite growth inhibition potency – SYBR Green, dry powder samples, dose response (AID 1159566); type: functional, cell-based;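 note: potency for growth inhibition with lower SYBR green DNA signal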
[8] = RKO cell viability reduction, dose response, CellTiter-Glo luminescence (AID 1117322); type: functional
[9] = cytotoxicity toward HT-29 cells – cell-based, CellTiter-Glo luminescence, IC50, dose response (AID 1117330); type: functional
[10] = cytotoxicity toward HCT116 cells – cell-based, CellTiter-Glo luminescence, IC50, dose response (AID 1117332); type: functional; details: HCT-116
[11] = CellTiter-Glo luminescence survival assay, SW480 colon tumor line, concentration-response curve, half-maximal inhibitory concentration (AID 1117338); type: functional
[12] = cytotoxicity toward Colo320 cells – cell-based, CellTiter-Glo luminescence, IC50, dose response (AID 1117334); type: functional; details: COLO 320
[13] = SNU-C1 cell viability reduction, dose response, CellTiter-Glo luminescence (AID 1117323); type: functional, cell-based
[14] = Reduced DLD-1 viability, concentration-response, CellTiter-Glo luminescence (AID 1117352); type: functional
[15] = HCT116 cell viability decrease, GSK3B pretreatment – CellTiter-Glo, IC50, dose response (AID 1117339); type: functional; details: HCT-116
[16] = rise of 4N DNA cells, HeLa – IC50, dose response (AID 1117351); type: functional, cell-based
P388/ADR = experiment: cells; type: functional; details: Mus musculus
[17] = rise of 2N DNA cells, HeLa – IC50, dose response (AID 1117349); type: functional, cell-based
SN12K1 = experiment: cells; type: functional; details: Homo sapiens
P388 = experiment: cells; type: functional; details: Mus musculus
[18] = molecular target: Sphingosine 1-phosphate receptor 2 (Homo sapiens, UniProt O95136); experiment: Dose Response Cell Based Assay for Antagonists of the S1P2 Receptor. [Related pubchem assays: 856, 736 ]; type: functional
Chain of Sphingosine 1-phosphate receptor 2 (O95136 whole entry): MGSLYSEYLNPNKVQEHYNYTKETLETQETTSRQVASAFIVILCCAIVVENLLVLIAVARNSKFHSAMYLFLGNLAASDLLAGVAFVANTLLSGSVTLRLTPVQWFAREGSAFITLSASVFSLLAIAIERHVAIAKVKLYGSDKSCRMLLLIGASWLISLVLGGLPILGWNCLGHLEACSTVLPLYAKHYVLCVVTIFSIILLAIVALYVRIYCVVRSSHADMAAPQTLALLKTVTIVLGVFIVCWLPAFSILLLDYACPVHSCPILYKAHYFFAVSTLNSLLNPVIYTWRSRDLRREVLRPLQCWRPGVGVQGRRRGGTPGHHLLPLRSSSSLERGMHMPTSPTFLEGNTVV

[19] = molecular target: T1, Microphthalmia-associated transcription factor (Homo sapiens, UniProt O75030); experiment: reducers of TRPM1 reporter luminescence, concentration series – cell-based, SK-MEL-5, cherry-picked, set 3, MITF inhibitor project, dose response (AID 493073); type: functional;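 note: SK-MEL-5 melanoma cells with luciferase driven by the MITF target TRPM1 promoter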
T1 sequence (O75030 whole entry): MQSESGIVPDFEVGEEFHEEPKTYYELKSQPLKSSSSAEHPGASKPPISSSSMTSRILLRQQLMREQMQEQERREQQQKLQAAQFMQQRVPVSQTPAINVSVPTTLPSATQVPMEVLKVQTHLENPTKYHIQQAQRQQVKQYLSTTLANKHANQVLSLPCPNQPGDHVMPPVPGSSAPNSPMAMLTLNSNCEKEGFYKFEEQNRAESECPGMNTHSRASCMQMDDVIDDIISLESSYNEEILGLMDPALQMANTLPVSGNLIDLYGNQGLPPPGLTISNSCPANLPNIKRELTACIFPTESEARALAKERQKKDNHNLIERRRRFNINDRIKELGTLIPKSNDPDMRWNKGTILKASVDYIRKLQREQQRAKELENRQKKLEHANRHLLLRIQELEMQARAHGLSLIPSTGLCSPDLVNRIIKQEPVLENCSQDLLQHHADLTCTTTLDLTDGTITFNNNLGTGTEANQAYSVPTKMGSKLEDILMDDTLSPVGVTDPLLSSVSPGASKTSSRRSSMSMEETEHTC

[20] = THP-1 cell cytotoxicity, dose response, cytotoxicity control for non-replicating M. tuberculosis project (AID 489025); type: functional
[21] = reduced cellular PGC1a acetyl-lysine signal – cell-based, cherry-picked samples, dose response (AID 720514); type: functional;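 note: potency may reflect raised or lowered acetylation signal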
[22] = Vero E6 cell cytotoxicity, dose response, cytotoxicity control for non-replicating M. tuberculosis project, secondary assay (AID 492998); type: functional, VeroE6; details: Vero C1008
Paired box protein Pax-8 = Paired box protein Pax-8 (Homo sapiens, UniProt Q06710); experiment: PAX8 transcriptional activity inhibition in RMG-I – RMG-I cells, luciferase, cherry-pick, dose response (AID 687027); type: functional, cell-based;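 note: luciferase reporter driven by Pax8 target thyroperoxidase promoter measured by SteadyGlo luminescence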
Chain of Paired box protein Pax-8 (Q06710 whole entry): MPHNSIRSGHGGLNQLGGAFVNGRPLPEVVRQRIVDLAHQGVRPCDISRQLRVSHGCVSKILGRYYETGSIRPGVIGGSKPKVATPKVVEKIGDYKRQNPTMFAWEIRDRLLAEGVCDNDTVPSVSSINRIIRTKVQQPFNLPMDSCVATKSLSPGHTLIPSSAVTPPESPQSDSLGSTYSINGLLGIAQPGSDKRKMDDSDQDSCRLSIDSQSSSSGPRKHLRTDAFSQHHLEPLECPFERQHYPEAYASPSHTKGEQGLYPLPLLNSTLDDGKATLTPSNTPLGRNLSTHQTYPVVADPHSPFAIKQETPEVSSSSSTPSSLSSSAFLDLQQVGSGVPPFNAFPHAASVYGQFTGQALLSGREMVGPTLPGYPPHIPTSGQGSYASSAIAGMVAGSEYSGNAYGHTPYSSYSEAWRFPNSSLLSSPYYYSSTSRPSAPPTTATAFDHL

cells = type: functional
[23] = HepG2 cell cytotoxicity, dose response, cytotoxicity control for non-replicating M. tuberculosis project (AID 489018); type: functional; details: Mycobacterium tuberculosis
Caspase-6 = Caspase-6 (Homo sapiens, UniProt P55212); experiment: inhibition of CASP6 peptide cleavage – biochemical, VEID-R110 fluorescence, cherry-pick, dose response (AID 720632)
Chain of Caspase-6 (P55212 24-179 limits assumed): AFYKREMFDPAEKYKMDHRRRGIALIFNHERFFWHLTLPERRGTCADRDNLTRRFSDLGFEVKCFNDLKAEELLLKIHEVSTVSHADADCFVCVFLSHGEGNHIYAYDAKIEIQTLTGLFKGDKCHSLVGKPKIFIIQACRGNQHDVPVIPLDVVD
Chain of Caspase-6 (P55212 194-293 limits assumed): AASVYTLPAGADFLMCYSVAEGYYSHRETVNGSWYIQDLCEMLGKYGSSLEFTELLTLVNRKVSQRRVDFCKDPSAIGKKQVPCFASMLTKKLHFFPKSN

[24] = Luminescence Cell-Based Dose Confirmation HTS to Identify Inhibitors of Polyadenylation.; type: functional

Chain of Mitogen-activated protein kinase 10 (P53779 whole entry): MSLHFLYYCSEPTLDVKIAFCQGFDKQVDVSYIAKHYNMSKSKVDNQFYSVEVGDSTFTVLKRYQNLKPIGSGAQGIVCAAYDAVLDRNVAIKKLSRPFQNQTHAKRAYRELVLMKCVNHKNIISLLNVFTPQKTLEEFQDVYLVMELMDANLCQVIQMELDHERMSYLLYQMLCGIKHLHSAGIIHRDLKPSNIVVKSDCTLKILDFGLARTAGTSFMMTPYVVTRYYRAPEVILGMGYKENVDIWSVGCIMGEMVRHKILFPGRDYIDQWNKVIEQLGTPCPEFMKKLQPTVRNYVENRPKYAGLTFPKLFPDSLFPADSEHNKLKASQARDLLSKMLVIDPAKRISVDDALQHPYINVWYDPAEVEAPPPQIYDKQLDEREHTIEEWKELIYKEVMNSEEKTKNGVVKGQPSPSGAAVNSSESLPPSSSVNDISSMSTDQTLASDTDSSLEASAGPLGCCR

## Cc1cccc(-n2ncc3c(NCc4cccs4)ncnc32)c1
[1]
  IC50: 72 µM (not active)

## O=C(Nc1ccc2[nH]c(-c3cccnc3)nc2c1)C12CC3CC(CC(C3)C1)C2
Galanin receptor type 2
  IC50: > 42 µM (not active)

## C/C=C/c1ccc([C@H]2[C@@H](CO)N(c3nc(C)c(C)s3)[C@@H]2CNCC(C)C)cc1
[2]
  AC50: 0.915 µM (active)
[3]
  AC50: 44.1 µM (active)
[4]
  AC50: 0.473 µM (active)
[5]
  AC50: 0.861 µM (active)
[6]
  AC50: > 39 µM (inactive)
[7]
  AC50: 0.227 µM (active)

## Cc1cccc(C)c1NC(=O)CC12CCCN1CCC2 [PILSICAINIDE]
[8]
  IC50: > 20 µM (inactive)
[9]
  IC50: > 20 µM (inactive)
[10]
  IC50: > 20 µM (inactive)
[11]
  IC50: > 20 µM (inactive)
[12]
  IC50: > 20 µM (inactive)
[13]
  IC50: > 20 µM (inactive)
[14]
  IC50: > 20 µM (inactive)
[15]
  IC50: > 20 µM (inactive)

## OC[C@H]1O[C@@H](n2cnc3c(S)ncnc32)[C@H](O)[C@@H]1O [THIOINOSINE]
[16]
  IC50: > 10 µM (inactive)
P388/ADR
  GI50: 1140 µM (inactive)
[8]
  IC50: 0.0144 µM (active)
[9]
  IC50: 0.118 µM (active)
[17]
  IC50: > 10 µM (inactive)
[10]
  IC50: 0.0286 µM (active)
[11]
  IC50: 0.0287 µM (active)
[12]
  IC50: 1.06 µM (active)
[13]
  IC50: 2.19 µM (active)
SN12K1
  GI50: 1780 µM (inactive)
P388
  GI50: 1240 µM (inactive)
[14]
  IC50: 0.063 µM (active)
[15]
  IC50: 0.504 µM (active)

## O=C(Nc1ccc(F)cc1)c1sccc1S(=O)(=O)Cc1cccc(C(F)(F)F)c1
[18]
  IC50: 18.4 µM (not active)

## Cn1nnnc1Sc1ncnc2scc(-c3ccc[nH]3)c12
[19]
  AC50: 7.32 µM (active)
[20]
  CC50: 14.8 µM (active)
[21]
  AC50: 7.84 µM (active)
[22]
  CC50: 13 µM (active)
Paired box protein Pax-8
  AC50: 2.96 µM (active)
cells
  IC50: 15.2 µM (active)
[23]
  CC50: 15.8 µM (active)

## COc1ccccc1NC(=O)N1CCCCN2[C@H](CO)[C@H](c3ccc(C#CC4CC4)cc3)[C@H]2C1
[2]
  AC50: 1.74 µM (active)
[3]
  AC50: 18.4 µM (active)
[4]
  AC50: 1.74 µM (active)
[5]
  AC50: 2.69 µM (active)
[6]
  AC50: 20.3 µM (active)
[7]
  AC50: 1.2 µM (active)

## O=Cc1ccc(Oc2nc(Cl)ncc2F)cc1
Caspase-6
  AC50: 9.13 µM (active)

## Cc1nc2ccc(NC(=O)Cc3ccc4c(c3)OCCO4)cc2s1
[24]
  EC50: > 120 µM (not active)

Reference: ChEMBL document CHEMBL1201862, “PubChem BioAssay data set” (2004)
